Laboratory results as given in patent US4839155A, “Iodotamoxifen derivatives and use for estrogen receptor-positive breast cancer detection and therapy” (National Research Development Corporation, priority 1986, dated 1989).

Assays:
MCF-7 cells = assay: MCF-7 cell growth, % of control; format: cell-based, human; details: for activity at 1 µM / activity at 0.1 µM / activity at 0.01 µM: Homo sapiens, MCF7, 37° C., 24 hours, ± standard deviation of four samples, >100 = growth stimulating (estrogenic); for activity at 1 µM: 10^-6 M; for activity at 0.1 µM: 10^-7 M; for activity at 0.01 µM: 10^-8 M; for activity in MCF-7 cell growth tests (in words): evaluation of Table 2, compared with tamoxifen
[1] = molecular target: T1, estrogen receptor (MCF-7 whole cells) (Homo sapiens, UniProt P03372); assay: Relative binding affinity (RBA), MCF-7 whole cell assay, inhibition of (3H)estradiol binding; details: RBA = [I50](estradiol)/[I50](test compound) × 100; 37° C., 50 minutes, 10^-9 M (3H)estradiol
T1 construct: host or cells: MCF-7 whole cells
T1 sequence (P03372 1-595): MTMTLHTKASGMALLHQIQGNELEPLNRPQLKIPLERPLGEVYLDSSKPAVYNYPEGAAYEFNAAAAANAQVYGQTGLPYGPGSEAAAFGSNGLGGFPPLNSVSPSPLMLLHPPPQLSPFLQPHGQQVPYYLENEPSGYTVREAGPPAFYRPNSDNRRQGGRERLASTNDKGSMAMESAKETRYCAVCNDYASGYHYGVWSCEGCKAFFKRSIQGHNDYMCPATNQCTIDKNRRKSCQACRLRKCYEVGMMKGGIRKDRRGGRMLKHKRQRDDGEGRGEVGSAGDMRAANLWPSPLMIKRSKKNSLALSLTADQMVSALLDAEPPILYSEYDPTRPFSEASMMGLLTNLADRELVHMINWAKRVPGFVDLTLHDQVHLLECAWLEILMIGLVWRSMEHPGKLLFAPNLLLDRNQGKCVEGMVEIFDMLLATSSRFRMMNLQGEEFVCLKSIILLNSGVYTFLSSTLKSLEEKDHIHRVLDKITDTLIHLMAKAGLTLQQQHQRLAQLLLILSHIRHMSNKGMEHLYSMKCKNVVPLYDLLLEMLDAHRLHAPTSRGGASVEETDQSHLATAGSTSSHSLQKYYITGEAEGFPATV
Experimental: A whole cell assay was then performed using the MCF-7 human breast cancer cell line obtained from the Michigan Cancer Foundation, Detroit, USA. MCF-7 cells were maintained at 37° C. in monolayer culture in closed T-25 dishes in mininal essential medium (MEM) supplemented with L-glutamine (0.6 mg/ml), gentamycin (40 micrograms/ml). penicillin (100 U/ml) streptomycin (100 micrograms/ml) and 10% inactivated fetal calf serum (inactivated for 1 hour at 56° C.). The MCF-7 cells were incubated at 37° C. for 50 minutes with 10^-9 M (^3 H)estradiol in the absence or presence of increasing amounts (10^-10 -10^-5 M) of the test compound or unlabelled estradiol (control). Bound compounds were then extracted with ethanol, and the amounts of estrogen receptor bound (^3 H) estradiol were measured. The RBA values were calculated as for the rat uterine cytosol.
(§1) The higher the values in the rat uterine cytosol test the greater the antiestrogenic effect. In the whole cell test, on the other hand, the estrogen receptors are localised in the cell nucleus and therefore bound to DNA. In the whole cell test, a low value indicating poor binding to cell nucleus ER and consequently low estrogenicity, can be considered favorable.

[2] = molecular target: T2, estrogen receptor (rat uterine cytosol) (Rattus norvegicus, UniProt P06211); assay: Relative binding affinity (RBA), rat uterine cytosol, inhibition of (3H)estradiol binding; details: RBA = [I50](estradiol)/[I50](test compound) × 100; 18° C., 30 minutes, 5×10^-9 M (3H)estradiol
T2 construct: from tissue; host or cells: immature rat uterus, cytosol
T2 sequence (P06211 1-600): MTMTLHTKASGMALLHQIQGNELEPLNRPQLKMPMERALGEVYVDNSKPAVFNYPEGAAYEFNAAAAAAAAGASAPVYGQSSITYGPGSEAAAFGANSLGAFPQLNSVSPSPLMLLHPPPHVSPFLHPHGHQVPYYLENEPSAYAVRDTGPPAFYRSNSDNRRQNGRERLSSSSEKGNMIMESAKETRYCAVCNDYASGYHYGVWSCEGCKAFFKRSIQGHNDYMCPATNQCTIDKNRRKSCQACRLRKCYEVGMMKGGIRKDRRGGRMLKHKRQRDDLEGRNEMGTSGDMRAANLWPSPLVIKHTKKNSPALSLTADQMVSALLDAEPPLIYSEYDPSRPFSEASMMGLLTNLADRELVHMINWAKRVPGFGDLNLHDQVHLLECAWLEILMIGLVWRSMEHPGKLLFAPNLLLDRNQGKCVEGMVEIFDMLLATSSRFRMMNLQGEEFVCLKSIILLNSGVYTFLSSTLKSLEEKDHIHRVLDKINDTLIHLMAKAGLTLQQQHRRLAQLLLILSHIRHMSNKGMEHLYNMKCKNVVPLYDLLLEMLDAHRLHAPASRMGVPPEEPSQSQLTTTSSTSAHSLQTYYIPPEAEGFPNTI
Experimental: Immature rat uterine cytosol was incubated at 18° C. for 30 minutes with 5×10^-9 M (^3 H)estradiol in the absence and presence of increasing amounts (10^-9 -10^-5 M) of the test compound or unlabelled estradiol (control). Unbound compounds were then removed with dextran-coated charcoal, and the amounts of estrogen receptor-bound (^3 H)estradiol were measured.
as §1

[3] = in vivo; prior art; cited from earlier work
estrogen receptor [4] = details: prior art; cited from earlier work
[5] = tested on: estrogen receptor-positive breast cancer; assay: Potency in relation to estrogen receptor-positive breast cancer (summary statement); details: compared with tamoxifen
[6] = cited from earlier work
estrogen receptor (ER) = details: prior art; cited from earlier work
rat uterine weight = details: compared with tamoxifen; K. E. Allen et al. (1980); cited from earlier work
estrogen receptor [7] = details: K. E. Allen et al. (1980); cited from earlier work

SMILES	activity at 1 µM (MCF-7 cells)	activity at 0.1 µM (MCF-7 cells)	activity at 0.01 µM (MCF-7 cells)	further results
CC/C(=C(/c1ccc(OCCN(C)C)cc1)c1cccc(I)c1)c1ccccc1 [3-Iodotamoxifen, E 1-[4-(2-dimethylaminoethoxy)phenyl]-1-(3-iodophenyl)-2-phenyl-1-butene]	27 ± 5%	68 ± 2%	100 ± 8%	activity in MCF-7 cell growth tests (in words) (MCF-7 cells): about as active as tamoxifen
CC/C(=C(\c1ccc(Br)cc1)c1ccc(OCCN(C)C)cc1)c1ccccc1 [4-Bromotamoxifen, E 1-[4-(2-dimethylaminoethoxy)phenyl]-1-(4-bromophenyl)-2-phenyl-1-butene]	63 ± 8%	101 ± 8%	130 ± 10%	RBA (relative binding affinity), MCF-7 whole cells [1]: 0.02; RBA (relative binding affinity), Rat uterine cytosol [2]: 3; activity in MCF-7 cell growth tests (in words) (MCF-7 cells): less active than tamoxifen
CC/C(=C(\c1ccc(O)cc1)c1ccc(OCCN(C)C)cc1)c1ccccc1 [4-Hydroxytamoxifen]	–	–	–	glucuronidation of the hydroxyl group followed by excretion [3]: rapid glucuronidation of the hydroxyl group followed by excretion; anti-estrogen potency in vitro (estrogen receptor [4]): potent anti-estrogen
CC/C(=C(\c1ccc(I)cc1)c1ccc(OCCN(C)C)cc1)c1ccccc1 [4-Iodotamoxifen, E 1-[4-(2-dimethylaminoethoxy)phenyl]-1-(4-iodophenyl)-2-phenyl-1-butene]	26 ± 2%	42 ± 6%	115 ± 6%	RBA (relative binding affinity), MCF-7 whole cells [1]: 0.05; potency in relation to estrogen receptor-positive breast cancer [5]: greater potency than tamoxifen; RBA (relative binding affinity), Rat uterine cytosol [2]: 30
CC/C(=C(\c1ccc(OC)cc1)c1ccc(OCCN(C)C)cc1)c1ccccc1 [4-methoxy derivative]	–	–	–	activity in other tests ([6]; compared with tamoxifen, K. E. Allen et al. (1980)): about the same as tamoxifen
CC/C(=C(\c1ccc(I)cc1)c1ccc(OCCN(CC)CC)cc1)c1ccccc1 [E-1-[4-(2-Diethylaminoethoxy)phenyl]-1-(4-iodophenyl)-2-phenyl-1-butene]	23 ± 2%	35 ± 5%	101 ± 7%	–
CC/C(=C(\c1ccc(I)cc1)c1ccc(OCCN2CCCC2)cc1)c1ccccc1 [Pyrrolidino analogue of 4-iodotamoxifen, E-1-[4-(2-(N-pyrrolidino)ethoxy)phenyl]-1-(4-iodophenyl-2-phenyl-1-butene)]	20 ± 2%	27 ± 3%	84 ± 5%	activity in MCF-7 cell growth tests (in words) (MCF-7 cells): particularly active
CC/C(=C(\c1ccccc1)c1ccc(OCCN(C)C)cc1)c1ccccc1 [Tamoxifen, Z (1,2-diphenyl)-1-[4-(2-dimethylaminoethoxy)-phenyl]-1-butene]	30 ± 1%	52 ± 1%	–	affinity for the estrogen receptor (ER) (estrogen receptor (ER)): relatively low affinity
CC/C(=C(/c1ccc(Br)cc1)c1ccc(OCCN(C)C)cc1)c1ccccc1 [Z isomer of 4-bromotamoxifen, reference compound]	174 ± 8%	163 ± 4%	110 ± 3%	–
CC/C(=C(/c1ccc(I)cc1)c1ccc(OCCN(C)C)cc1)c1ccccc1 [Z isomer of 4-iodotamoxifen, reference compound]	120 ± 3%	126 ± 6%	99 ± 13%	–
CC/C(=C(\c1ccc(Cl)cc1)c1ccc(OCCN(C)C)cc1)c1ccccc1 [chloro]	–	–	–	potency compared with tamoxifen (report by K. E. Allen et al.) [6]: of no greater potency than tamoxifen; anti-estrogenic activity, in vivo rat uterine weight tests (rat uterine weight): lower anti-estrogenic activity than tamoxifen; estrogen receptor affinity in vitro, compared with tamoxifen (estrogen receptor [7]): approximately equiactive
CC/C(=C(\c1ccc(F)cc1)c1ccc(OCCN(C)C)cc1)c1ccccc1 [fluoro]	–	–	–	potency compared with tamoxifen (report by K. E. Allen et al.) [6]: of no greater potency than tamoxifen; anti-estrogenic activity, in vivo rat uterine weight tests (rat uterine weight): lower anti-estrogenic activity than tamoxifen; estrogen receptor affinity in vitro, compared with tamoxifen (estrogen receptor [7]): approximately equiactive
CC/C(=C(\c1ccc(C)cc1)c1ccc(OCCN(C)C)cc1)c1ccccc1 [methyl]	–	–	–	anti-estrogenic activity, in vivo rat uterine weight tests (rat uterine weight): lower anti-estrogenic activity than tamoxifen; estrogen receptor affinity in vitro, compared with tamoxifen (estrogen receptor [7]): approximately equiactive
